molecular target: T1, JMJD3 (Homo sapiens, UniProt O15054); test: JMJD3 in vitro enzyme inhibition assay (AlphaScreen); assay type: biochemical; conditions: 1 nM JMJD3, 250 nM H3K27me3-biotin peptide, 1 μM alpha-ketoglutaric acid
T1 construct: purchased BPS Bioscience 50115
Source text: This assay determines the ability of a test compound to inhibit Jarid1B, JMJD2C and JMJD3 demethylase activity. Baculovirus-expressed Jarid1B (GenBank Accession # NM-006618, AA 2-751) was purchased from BPS Bioscience (Cat #50121) or custom made by MolecularThroughput. Baculovirus-expressed JMJD2C (GenBank Accession # BC143571, AA 2-372) was purchased from BPS Bioscience (Cat #50105). Baculovirus-expressed JMJD3 (GenBank Accession # NM_001080424, AA1043-end) was purchased from BPS Bioscience (Cat #50115).
The ability of test compounds to inhibit the activity of JMJD3 was determined in 384-well plate format under the following reaction conditions: 1 nM JMJD3, 250 nM H3K27me3-biotin labeled peptide (Anaspec cat #64367), 1 μM alpha-ketoglutaric acid in assay buffer of 50 mM HEPES, pH 7.3, 0.005% Brij35, 0.5 mM TCEP, 0.2 mg/ml BSA, 50 μM sodium L-ascorbate, 5 μM ammonium ironII sulfate. Reaction product is determined quantitatively by AlphaScreen detection after the addition of detection reagents anti-H3K27me1 antibody, 5 μg/ml AlphaScreen® Streptavidin-coated Donor beads, and 5 μg/ml. AlphaScreen® Protein A Acceptor beads in 50 mM HEPES, pH 7.3, 10 mM NaCl, 0.005% Brij35, 10 mM :EDTA, 2 mg/ml BSA.
The assay reaction was initiated by the following: 3 μl of the mixture of 750 nM H3K27me3-biotin labeled peptide and 3 μM alpha-ketoglutaric acid with 3 μl of 11-point serial diluted inhibitor in 3% DMSO are added to each well of 384-well Proxiplate (Perkin Elmer), followed by the addition of 3 μl of 3 nM JMJD3 to initiate the reaction. The reaction mixture was incubated at room temp for 20 min, and terminated by the addition of 3 μl of appropriate dilution of anti-H3K27me1 antibody in 50 mM HEPES, pH 7.3, 10 mM NaCl, 0.005% Brij35, 10 mM EDTA, 2 mg/ml BSA. […] Plates were read by EnVision Multilabel Reader in AlphaScreen mode after minimum 2 hr incubation at room temp. […]
The ability to inhibit demethylase activity was quantified and the respective IC50 value was determined for substituted triazolylpyridine derivative compounds. […]

T1 sequence (O15054 1043-1682 isoform O15054-1): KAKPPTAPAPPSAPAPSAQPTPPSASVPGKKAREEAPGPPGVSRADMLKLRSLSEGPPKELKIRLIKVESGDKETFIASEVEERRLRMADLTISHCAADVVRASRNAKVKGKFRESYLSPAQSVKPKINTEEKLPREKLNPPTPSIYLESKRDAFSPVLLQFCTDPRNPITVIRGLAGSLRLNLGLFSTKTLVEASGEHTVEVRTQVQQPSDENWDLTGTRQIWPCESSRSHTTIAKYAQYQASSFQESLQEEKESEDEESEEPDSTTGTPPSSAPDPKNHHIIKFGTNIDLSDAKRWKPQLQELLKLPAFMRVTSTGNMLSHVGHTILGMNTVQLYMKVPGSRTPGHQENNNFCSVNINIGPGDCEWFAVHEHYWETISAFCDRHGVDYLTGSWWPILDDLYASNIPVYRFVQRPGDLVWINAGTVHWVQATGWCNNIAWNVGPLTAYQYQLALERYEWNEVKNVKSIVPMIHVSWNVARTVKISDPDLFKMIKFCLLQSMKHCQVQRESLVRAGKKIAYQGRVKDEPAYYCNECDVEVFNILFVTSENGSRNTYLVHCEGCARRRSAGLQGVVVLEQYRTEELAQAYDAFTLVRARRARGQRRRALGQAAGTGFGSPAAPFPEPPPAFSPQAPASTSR

IC50, > 10 µM:
Fc1cnccc1-c1nn[nH]c1C(F)(F)F [Example 1, 3-fluoro-4-[5-(trifluoromethyl)-1H-1,2,3-triazol-4-yl]pyridine]
Fc1ccc(Cl)cc1Nc1cnccc1-c1nn[nH]c1C(F)(F)F [Example 2, N-(5-chloro-2-fluorophenyl)-4-[5-(trifluoromethyl)-1H-1,2,3-triazol-4-yl]pyridin-3-amine]
FC(F)(F)c1[nH]nnc1-c1ccncc1NCC1CCCc2ccccc21 (stereo not drawn) [Example 3, N-[(1,2,3,4-tetrahydronaphthalen-1-yl)methyl]-4-[5-(trifluoromethyl)-1H-1,2,3-triazol-4-yl]pyridine-3-amine]

Reference: US10870634B2, “Histone demethylase inhibitors” (CELGENE QUANTICEL RESEARCH, INC., priority 2016, dated 2020)
